The target of one data set is T1, Progesterone receptor (Homo sapiens, UniProt P06401).
T1 sequence (P06401 whole entry): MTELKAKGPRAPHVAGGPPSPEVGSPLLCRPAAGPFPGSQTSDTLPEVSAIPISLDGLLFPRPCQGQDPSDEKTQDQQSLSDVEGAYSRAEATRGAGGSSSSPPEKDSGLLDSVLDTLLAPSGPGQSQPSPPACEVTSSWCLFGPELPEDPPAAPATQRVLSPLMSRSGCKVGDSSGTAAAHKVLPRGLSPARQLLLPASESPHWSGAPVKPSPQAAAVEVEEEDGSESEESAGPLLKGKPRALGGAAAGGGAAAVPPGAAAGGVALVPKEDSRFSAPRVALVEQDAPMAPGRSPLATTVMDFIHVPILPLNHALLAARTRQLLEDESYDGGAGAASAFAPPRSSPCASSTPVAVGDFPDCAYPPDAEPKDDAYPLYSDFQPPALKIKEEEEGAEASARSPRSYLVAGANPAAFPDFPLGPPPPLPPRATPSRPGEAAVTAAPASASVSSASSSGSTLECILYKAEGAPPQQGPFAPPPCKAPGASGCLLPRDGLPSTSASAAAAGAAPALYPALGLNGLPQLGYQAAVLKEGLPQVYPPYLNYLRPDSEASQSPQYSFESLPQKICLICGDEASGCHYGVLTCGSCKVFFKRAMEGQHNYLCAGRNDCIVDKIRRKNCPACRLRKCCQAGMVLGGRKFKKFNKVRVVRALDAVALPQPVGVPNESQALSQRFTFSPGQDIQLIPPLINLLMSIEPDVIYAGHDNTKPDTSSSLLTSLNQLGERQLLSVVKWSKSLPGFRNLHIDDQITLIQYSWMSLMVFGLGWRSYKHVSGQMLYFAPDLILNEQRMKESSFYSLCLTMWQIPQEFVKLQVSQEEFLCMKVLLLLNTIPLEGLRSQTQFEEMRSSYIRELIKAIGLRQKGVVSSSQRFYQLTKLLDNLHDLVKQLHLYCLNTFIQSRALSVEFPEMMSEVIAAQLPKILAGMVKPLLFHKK
Nature of the data set: Inhibition of human progesterone receptor.

The target of data set [1] is T2, Glucocorticoid receptor (Rattus norvegicus, UniProt P06536).
T2 sequence (P06536 whole entry): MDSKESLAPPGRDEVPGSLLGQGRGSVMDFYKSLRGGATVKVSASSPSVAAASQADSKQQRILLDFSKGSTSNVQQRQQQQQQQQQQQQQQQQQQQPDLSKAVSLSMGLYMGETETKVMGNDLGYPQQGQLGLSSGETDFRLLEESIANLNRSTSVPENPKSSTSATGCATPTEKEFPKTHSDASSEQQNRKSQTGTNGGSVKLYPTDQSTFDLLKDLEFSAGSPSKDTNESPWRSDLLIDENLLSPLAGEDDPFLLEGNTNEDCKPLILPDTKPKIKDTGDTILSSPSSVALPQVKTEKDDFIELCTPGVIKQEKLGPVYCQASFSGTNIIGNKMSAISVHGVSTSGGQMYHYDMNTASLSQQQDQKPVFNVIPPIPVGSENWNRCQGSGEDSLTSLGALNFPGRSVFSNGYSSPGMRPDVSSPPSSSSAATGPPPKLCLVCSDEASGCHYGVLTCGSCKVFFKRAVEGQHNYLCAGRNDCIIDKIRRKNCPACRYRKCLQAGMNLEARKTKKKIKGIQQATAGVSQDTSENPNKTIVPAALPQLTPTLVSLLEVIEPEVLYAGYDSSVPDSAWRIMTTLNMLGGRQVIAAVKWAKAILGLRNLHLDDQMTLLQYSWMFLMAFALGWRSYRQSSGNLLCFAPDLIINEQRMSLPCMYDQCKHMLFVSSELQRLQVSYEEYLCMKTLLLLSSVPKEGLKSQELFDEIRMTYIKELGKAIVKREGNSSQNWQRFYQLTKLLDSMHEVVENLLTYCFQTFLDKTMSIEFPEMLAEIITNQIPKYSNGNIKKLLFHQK
As to the kind of experiment: Inhibition of [3H]dexamethasone binding to rat glucocorticoid receptor.

Data set [2] addresses T3, Glucocorticoid receptor (Homo sapiens, UniProt P04150).
T3 sequence (P04150 whole entry): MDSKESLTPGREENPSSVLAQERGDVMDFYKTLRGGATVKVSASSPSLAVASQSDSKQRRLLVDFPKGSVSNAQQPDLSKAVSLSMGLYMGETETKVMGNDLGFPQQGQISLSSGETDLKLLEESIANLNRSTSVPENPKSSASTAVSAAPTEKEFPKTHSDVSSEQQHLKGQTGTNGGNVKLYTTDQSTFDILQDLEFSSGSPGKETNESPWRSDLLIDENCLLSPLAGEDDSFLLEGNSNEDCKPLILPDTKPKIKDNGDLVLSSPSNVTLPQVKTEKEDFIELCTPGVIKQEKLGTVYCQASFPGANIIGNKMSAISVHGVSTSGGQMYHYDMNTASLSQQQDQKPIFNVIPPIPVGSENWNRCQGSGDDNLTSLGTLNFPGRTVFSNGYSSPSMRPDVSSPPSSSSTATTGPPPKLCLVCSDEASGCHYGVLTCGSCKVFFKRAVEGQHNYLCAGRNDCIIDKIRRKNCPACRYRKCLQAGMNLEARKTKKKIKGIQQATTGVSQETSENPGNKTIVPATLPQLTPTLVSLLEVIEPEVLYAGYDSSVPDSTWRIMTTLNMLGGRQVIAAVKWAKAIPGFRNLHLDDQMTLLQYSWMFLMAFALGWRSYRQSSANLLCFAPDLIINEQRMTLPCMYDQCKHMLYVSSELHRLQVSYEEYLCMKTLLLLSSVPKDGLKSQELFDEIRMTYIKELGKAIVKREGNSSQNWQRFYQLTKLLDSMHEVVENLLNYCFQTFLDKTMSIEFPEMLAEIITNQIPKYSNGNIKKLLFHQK
As to the kind of experiment: Antagonistic activity against 5 nM Dexamethasone induced glucocorticoid receptor mediated alkaline phosphatase activity. It is filed as functional.

Data set [3] is described as follows: Half life period of the compound in rat hepatocytes was determined. It is filed as ADME, cell-based, Liver, Hepatocyte.
Data set [4] is described as follows: Half life period of the compound in human hepatocytes was determined. It is filed as ADME, cell-based, Liver, Hepatocyte.
Data set [5] in a line: Half life period of the compound in rat liver microsomes was determined. Format: ADME, Microsome. (In general: Microsomes from liver hold many membrane-bound enzymes, among them those of drug oxidation.)
The nature of data set [6]: Half life period of the compound in human liver microsomes was determined. It is filed as ADME, Microsome.
Data set [7] is described as follows: Plasma protein binding of tritium labeled compound in rat plasma was determined. It is filed as ADME, cell-free. To be noted: read-out: Protein binding.
Data set [8] is described as follows: Area under the concentration-time curve in SD rats after 5 mg/kg oral dose. More on the design: dose 5 mg/kg, route oral. It is filed as ADME, organism-based. Conditions: rat, in vivo.
Data set [9] in a line: Compound level in liver in SD rats after 1 hr of 5 mg/kg i.v. dose. It is filed as ADME, organism-based. More on the design: dose 5 mg/kg, route intravenous. Conditions: Sprague-Dawley, rat, iv, read-out: Level.
Data set [10] can be described thus: Compound level in liver in SD rats after 7 hr of 5 mg/kg i.v. dose. It is filed as ADME, organism-based. More on the design: dose 5 mg/kg, route intravenous. To be noted: Sprague-Dawley, rat, iv, read-out: Level.
Data set [11] can be described thus: Compound level in plasma in SD rats after 1 hr of 5 mg/kg i.v. dose. Conditions: Sprague-Dawley, rat, iv, read-out: Level. Format: ADME, organism-based. More on the design: dose 5 mg/kg, route intravenous.
A short description of data set [12]: Compound level in plasma in SD rats after 7 hr of 5 mg/kg i.v. dose. It is filed as ADME, organism-based. More on the design: dose 5 mg/kg, route intravenous. To be noted: Sprague-Dawley, rat, iv, read-out: Level.
Data set [13] can be described thus: Compound level in liver in ob/ob mice after 13 days of 100 mpk oral dose of compound. Format: ADME. To be noted: mouse, 100 mg/kg, read-out: Level.
The target in data set [14] is T3, Glucocorticoid receptor.

For orientation: IC50 means the concentration at which inhibition is half-maximal. A lower IC50 goes with greater potency. Broadly, the half-life is how long it takes for the measured level to halve. A low value points to rapid decline. A word on the AUC: it is the area under the concentration-time curve, a measure of exposure. With `Cc1c(NS(C)(=O)=O)cccc1N(Cc1ccc(Oc2ccc(F)c(OCC(=O)O)c2)cc1)Cc1ccc(F)cc1F`, the IC50 against Progesterone receptor is 0.18 µM; at Glucocorticoid receptor [1], 0.0002 µM; at Glucocorticoid receptor [2] it was 0.44 µM; at Glucocorticoid receptor [14], 0.0048 µM. For the same molecule, the half-life in data set [3] was 6.5 h; in data set [4], 9.1 h; in data set [5] it was 4.1 h; in data set [6], 2.3 h. Besides, in data set [7], the fraction unbound is 0.001. In data set [8], this molecule came in with an AUC of 3850 ng·h/mL. Also, the concentration at 1 h is 74000 ng/g in data set [9] and 1600 ng/mL in [11]. In addition, the concentration at 7 h came out at 40000 ng/g in data set [10] and 650 ng/mL in [12]. Further, the concentration at 312 h in [13] was 157000 ng/g.
As for `CC#C[C@]1(O)CC[C@H]2[C@@H]3CCC4=CC(=O)CC[C@]4(Cc4ccc(C)cc4)C3=CC[C@@]21C`, the 50% inhibitory concentration (IC50) against Progesterone receptor turned out to be 2.4 µM; on Glucocorticoid receptor [1], 0.0024 µM; on Glucocorticoid receptor [2], 0.043 µM; against Glucocorticoid receptor [14] it was 0.0024 µM. For the same molecule, the figures for the half-life in [3] and in data set [5] were under 0.2 h and 0.33 h, respectively.
With `Cc1c(NS(C)(=O)=O)cccc1N(Cc1ccc(Oc2ccc(Cl)c(OCC(=O)O)c2)cc1)Cc1ccc(F)cc1F`, the IC50 against Progesterone receptor stood at 0.15 µM; at Glucocorticoid receptor [1], 0.0019 µM; on Glucocorticoid receptor [2], 0.5 µM; against Glucocorticoid receptor [14], 0.0026 µM.
Consider `Cc1c(NS(C)(=O)=O)cccc1N(Cc1ccccc1)Cc1ccc(Oc2ccc(OCC(=O)O)cc2)cc1`, for which the IC50 against Progesterone receptor was found to be 1.7 µM; on Glucocorticoid receptor [1], 0.0021 µM. In addition, the half-life is 9.9 h in [3], 31.1 h in data set [4], 4.6 h in data set [5] and 8.9 h in [6]. In addition, the concentration at 1 h in data set [9] is 20000 ng/g; in [11], 30 ng/mL. Besides, the concentration at 7 h was 3800 ng/g in data set [10] and 10 ng/mL in data set [12]. In data set [13], the concentration at 312 h was 207000 ng/g.
Regarding `Cc1c(NS(C)(=O)=O)cccc1N(Cc1ccccc1)Cc1ccc(Oc2cccc(OCCCC(=O)NCCCC(=O)O)c2)cc1`, the IC50 was 0.55 µM against Progesterone receptor and 0.001 µM at Glucocorticoid receptor [1].

For the origin of these results see ChEMBL document CHEMBL1141148, “Antidiabetic activity of passive nonsteroidal glucocorticoid receptor modulators” (J Med Chem, 2005).
